Data from US10175256B2, “Compositions and methods utilizing lysophosphatidylcholine scaffolds” (National University Of Singapore, priority 2013, dated 2019).
Where “and” joins values, the source holds several entries; their conditions need not be identical. Identical values can stand only once.

Tests used:
mouse Mfsd2a [1] = target: T1, mouse Mfsd2a (Mus musculus, UniProt Q9DA75); experiment: Cell-based free fatty acid transport/uptake in Mfsd2a expressing HEK293 cells (mass spectrometry, TLC; Table 1); details: for % DHA in PC + lysoPC / % DHA in PE + lysoPE / % DHA in PI and lysoPI / % DHA in PS: Mfsd2a expressing HEK293 cells
T1 construct: expressed in transfected cells; host or cells: HEK293
T1 sequence (Q9DA75 1-534): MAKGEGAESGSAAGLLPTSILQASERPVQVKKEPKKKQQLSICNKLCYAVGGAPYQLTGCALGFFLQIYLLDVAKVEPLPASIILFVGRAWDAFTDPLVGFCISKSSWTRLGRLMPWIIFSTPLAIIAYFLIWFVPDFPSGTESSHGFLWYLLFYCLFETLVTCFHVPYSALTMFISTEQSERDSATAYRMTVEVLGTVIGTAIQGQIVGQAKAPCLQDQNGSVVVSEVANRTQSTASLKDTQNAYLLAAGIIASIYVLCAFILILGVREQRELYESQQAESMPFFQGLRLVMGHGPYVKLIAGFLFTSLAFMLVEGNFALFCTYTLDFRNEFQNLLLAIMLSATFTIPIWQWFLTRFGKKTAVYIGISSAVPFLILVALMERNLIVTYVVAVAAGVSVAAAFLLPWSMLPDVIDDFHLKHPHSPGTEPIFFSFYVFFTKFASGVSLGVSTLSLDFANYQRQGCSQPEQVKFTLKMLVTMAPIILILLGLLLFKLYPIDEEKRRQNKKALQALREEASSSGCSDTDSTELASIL
Method in brief: (§1)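 HEK293 cells expressing mouse Mfsd2a, or mock controls, were incubated overnight with 100 μM BSA-complexed fatty acids. Lipids were extracted in hexane:isopropanol (3:2) and phospholipid species quantified by HPLC-MS/MS against spiked internal standards. For TLC, cells received 100 μM [^14C]-oleate overnight, and phospholipids and neutral lipids were resolved.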

mouse Mfsd2a [2] = experiment: as above; details: mock HEK293 cells
Method in brief: as §1

Mfsd2a [3] = target: T2, Mfsd2a (Mus musculus, UniProt Q9DA75); experiment: In vivo transport of radiolabeled, fluorescent LPCs and unesterified DHA in Mfsd2a KO and wild-type mice; parameters: from tissue; host or cells: living mice; brain (blood-brain barrier endothelium), liver, heart; fetal brain
T2 sequence (Q9DA75 1-534): T1 sequence (Q9DA75 1-534)
Method: Male and female mice of age of 6-8 weeks were IV injected with 75 μl of 20 mM radiolabeled LPC-[…], 100 μl of 10 mM LPC-[^14C]DHA/BSA complex or 82 μl of 12.2 mM [^14C]DHA/BSA complex in a total volume of 150 μl of phosphate-buffered saline. At 2 hours post injection, mice were anesthetized and perfused for 5 mins with PBS containing 0.5% BSA in order to remove blood and lipid tracer bound to the brain vasculature. Tissues were harvested for lipid extraction. For lipid extraction, tissues were weighed and similar amounts of tissues were homogenized in chloroform/methanol. Lipids from the organic phase were mixed with scintillant and scintillation counted. Similar experiments were also performed with an injection of 300 μg NBD-LPC/BSA or 300 μg TopFluor-LPC/BSA complex per mouse. In this experiment, mice were perfused for 5 mins with PBS followed 15 mins perfusion with 4% paraformaldehyde (PFA) for tissue fixation. Brain sections of WT and KO with a thickness of 40 μm were prepared and scanned using green fluorescence mode in Typhoon FLA 9000 scanner (Agilent). NBD-LPC accumulation was expressed as fluorescence of each section per its area. Dietary DHA transport from mother to fetus was also measured using [^14C]DHA/BSA complex. Pregnant females at e18.5 was gavaged with bolus of [^14C]DHA/BSA complex (200 μl of 10 mM [^14C]DHA/BSA/mouse). Brain of fetuses were collected 20 hours post-gavage and weighed. Lipid extraction and radioactivity were performed as described above.

Mfsd2a [4] = target: T2, Mfsd2a; experiment: Dietary DHA transport from mother to fetus (fetal brain uptake); assay type: in vivo, mice; parameters: from tissue; host or cells: living mice; brain (blood-brain barrier endothelium), liver, heart; fetal brain
Method: FIG. 21. […] Heterozygous female mice were gavaged with 100 ul DHA oil (containing 26% DHA triglyceride and 6% EPA, total omega-3 is 35%) every 2 days for 2 weeks prior to conception in crosses with KO males. […] The rationale for using HET and KO intercrosses was to increase the yield of KO mice in this rescue study. During gestation, pregnant mice were continued on gavages of DHA every 2 days. Gavages of mothers continued during breastfeeding and pups were weaned onto normal diet at 3 weeks of age and gavaged every 2 days with DHA for 8 weeks. a, brain weight of adult WT (n=4) and KO (n=4) mice aged 8 weeks after treatment with dietary DHA oil. […] To test this possibility, pregnant het mothers intercrossed to KO fathers at e17.5-e19.5, were gavaged with [^14C]DHA and uptake into fetal brains were quantified. […] Data are expressed as mean±SEM. *P<0.05. ***P<0.001.
Male and female mice of age of 6-8 weeks were IV injected with 75 μl of 20 mM radiolabeled LPC-[…], 100 μl of 10 mM LPC-[^14C]DHA/BSA complex or 82 μl of 12.2 mM [^14C]DHA/BSA complex in a total volume of 150 μl of phosphate-buffered saline. […] Lipids from the organic phase were mixed with scintillant and scintillation counted. […] Brain sections of WT and KO with a thickness of 40 μm were prepared and scanned using green fluorescence mode in Typhoon FLA 9000 scanner (Agilent). […]

[5] = 100 uM Alpha-linolenic fatty acid/BSA overnight, replicate columns
[6] = 100 uM Arachidonic fatty acid/BSA overnight
[7] = 100 uM Eicosapentaenoic fatty acid/BSA overnight
[8] = 100 uM Docosahexaenoic acid/BSA overnight
[9] = 100 uM Eicosapentaenoic acid/BSA overnight
[10] = 100 uM Linoleic fatty acid/BSA overnight
[11] = 100 uM Oleic fatty acid/BSA overnight

## CCC=CCC=CCC=CCC=CCC=CCC=CCC[14C](=O)O [[^14C]DHA, [1-^14C]docosahexaenoic acid, reference compound]
Mouse Mfsd2a [1]; HEK293 cells, 100 μM fatty acid/BSA overnight
  transport of unesterified fatty acid by Mfsd2a: did not transport
Mouse Mfsd2a [1]; [5]
  % DHA in PC + lysoPC: 0.2353% and 0.2194% and 0.2422% and 0.2191%
  % DHA in PE + lysoPE: 13.49% and 15.19% and 13.82% and 14.8475%
  % DHA in PI and lysoPI: 0.05995% and 0.06331% and 0.07073% and 0.06627%
  % DHA in PS: 0.1602% and 0.1425% and 0.1723% and 0.1454%
Mouse Mfsd2a [1]; [6]
  % DHA in PC + lysoPC: 0.08166% and 0.07964% and 0.09753% and 0.09194%
  % DHA in PE + lysoPE: 7.284% and 8.765% and 7.721% and 8.735%
  % DHA in PI and lysoPI: 0.01388% and 0.01389% and 0.0161% and 0.01507%
Mouse Mfsd2a [1]; 100 uM Arachidonic fatty acid/BSA overnight, replicate columns
  % DHA in PS: 0.1231% and 0.1085% and 0.1181% and 0.1151%
Mouse Mfsd2a [1]; [7]
  % DHA in PE + lysoPE: 18.3299% and 16.89% and 16.6% and 16.53%
  % DHA in PI and lysoPI: 0.048% and 0.05677% and 0.0498% and 0.05152%
  % DHA in PS: 0.2062% and 0.2182% and 0.1861% and 0.2178%
Mouse Mfsd2a [1]; 100 uM Linoleic fatty acid/BSA overnight, replicate columns
  % DHA in PC + lysoPC: 0.06735% and 0.06556% and 0.06667% and 0.06486%
Mouse Mfsd2a [1]; [8]
  % DHA in PC + lysoPC: 0.4167% and 0.3839% and 0.3923% and 0.3416%
  % DHA in PE + lysoPE: 26.88% and 25.05% and 25.61% and 24.93%
  % DHA in PI and lysoPI: 0.2363% and 0.1967% and 0.2348% and 0.1831%
  % DHA in PS: 0.4937% and 0.5293% and 0.485% and 0.4533%
Mouse Mfsd2a [1]; [9]
  % DHA in PC + lysoPC: 0.1577% and 0.1414% and 0.143% and 0.141%
Mouse Mfsd2a [1]; [10]
  % DHA in PE + lysoPE: 10.0396% and 9.979% and 10.14% and 10.29%
  % DHA in PI and lysoPI: 0.01746% and 0.01513% and 0.01522% and 0.01521%
  % DHA in PS: 0.1229% and 0.1239% and 0.1343% and 0.1145%
Mouse Mfsd2a [1]; [11]
  % DHA in PC + lysoPC: 0.04304% and 0.04054% and 0.04274% and 0.04139%
  % DHA in PE + lysoPE: 10.39% and 10.24% and 9.206% and 11.33%
  % DHA in PI and lysoPI: 0.01405% and 0.01452% and 0.01424% and 0.01275%
Mouse Mfsd2a [2]; [6]
  % DHA in PC + lysoPC: 0.09113% and 0.09288% and 0.09495%
  % DHA in PE + lysoPE: 8.696% and 8.987% and 7.919%
  % DHA in PI and lysoPI: 0.01273% and 0.01321% and 0.01121%
Mouse Mfsd2a [2]; [7]
  % DHA in PE + lysoPE: 15.99% and 18.52% and 17.73%
  % DHA in PI and lysoPI: 0.03815% and 0.04977% and 0.04803%
  % DHA in PS: 0.1841% and 0.2258% and 0.1957%
Mouse Mfsd2a [2]; [8]
  % DHA in PC + lysoPC: 0.4237% and 0.3234% and 0.432%
  % DHA in PE + lysoPE: 26.43% and 26.89% and 27.48%
  % DHA in PI and lysoPI: 0.204% and 0.2547% and 0.2244%
  % DHA in PS: 0.5491% and 0.6402% and 0.653%
Mouse Mfsd2a [2]; [9]
  % DHA in PC + lysoPC: 0.1385% and 0.1469% and 0.1528%
Mouse Mfsd2a [2]; [10]
  % DHA in PE + lysoPE: 9.697% and 10.5% and 10.2%
  % DHA in PI and lysoPI: 0.01565% and 0.01716% and 0.01581%
  % DHA in PS: 0.1596% and 0.1455% and 0.1427%
Mouse Mfsd2a [2]; [11]
  % DHA in PC + lysoPC: 0.04427% and 0.04402% and 0.04911%
  % DHA in PE + lysoPE: 10.41% and 11.83% and 10.1%
  % DHA in PI and lysoPI: 0.01286% and 0.01294% and 0.01231%
Mfsd2a [3]; i.v. injection, 2 hrs post-injection, radiolabel
  brain uptake in KO mice relative to wild-type: not reduced
Mfsd2a [3]; wild-type brain, same amount injected i.v., 2 hrs
  brain uptake, unesterified DHA compared with LPC-DHA: significantly lower
Mfsd2a [4]; e18.5, maternal gavage
  brain uptake by KO embryos compared to wild-type embryos: dramatically reduced
Mfsd2a [4]; pregnant het mothers gavaged at e17.5-e19.5
  reduction in fetal brain uptake, KO relative to het: 80%
